Measured values reported in US5981497A, “Utilization of sophorolipids as therapeutically active substances or cosmetic products, in particular for the treatment of the skin” (Institut Francais du Petrole, priority 1995, dated 1999).
Like-named read-outs stand apart in the source and are kept apart here.

Experiments:
melanocytes = experiment: Melanine dosage in melanocytes after 7 and 14 days; assay type: cell-based; conditions: for activity at 100 µM / activity at 10 µM / activity at 1 µM: Melanocyte, read-out: Melanine content; for activity at 100 µM: 10^-4M; for activity at 10 µM: 10^-5M; for activity at 1 µM: 10^-6M
Description: It is noted that cutaneous ageing causes epidermal functions to slow down: melanine no longer comes to the surface of the skin in a homogeneous manner and concentrates inside certain cells, and brown spots appear mainly on the hands, the forearms, and the neckline. […] Residues are picked up in PBS/triton X-100 (1% v/v) and sounds for 30 seconds. The cellular lysate is ultracentrifuged (105,000 rpm for 40 minutes at +4° C.). The residue that is obtained is then picked up in 1 ml of PBS. The proportion of protein is determined by the calorimetric method (Biorad) and then adjusted to 1.5 mg/ml.
100-(content of melanine of the tested product×100/content of melanine TN)
TN corresponds to the negative test.
As a result, again, the galenical forms are diverse. An example of an anti-spot cream for hands that is also used in cosmetics or in therapeutics is provided below, however: […]

in vitro = conditions: keratinocyte culture
Description: A keratinocyte culture that was placed under conditions that promote the differentiation of cells was selected as a cellular model for the study. The actions of sophorolipids in acid form A, sophorolipids in lactone form B, and lactic acid on the detachment of corneocytes of the selected cellular model were tested in vitro in parallel. In each experiment, the mean difference T60-T0 (corneocytes/ml), as well as the proportion of detached corneocytes, expressed in percentage relative to the negative test (%/TN), were determined.
Cellular viability, measured with the Neutral Red test, is expressed relative to the negative test (%).

fibroblasts = experiment: Cytotoxicity on primocultures at 24 hours (neutral red), fibroblasts; assay type: cell-based
Description: (§1) Their innocuousness and their activity make it possible to use them in other stages of healing, namely granulation and epithelialization, by modulating their concentration in the formulas of products that are used. This is possible only because of the low cytotoxicity of sophorolipids, as Tables 3A and 3B show. The toxicity of the products of the invention has been evaluated with a viability test with neutral red on two cellular types of the skin, cells L929 and other fibroblasts of the dermis and cells NCTC 2544 and keratinocytes of the epidermis. The results, which are presented in Tables 3A, 3B, correspond to the rates of cellular viability that are expressed in % relative to the negative test.

[1] = tested on: macrophages (Interleukin-1 release); experiment: IL-1 released by macrophages (Elisa sandwich test on culture supernatant); assay type: cell-based
Description: It is known, however, that several factors such as cytokines and growth factors play important roles in the process of wound healing. These factors include the epidermal growth factor (EGF), the fibroblastic growth factor (FGF), the platelet-derived growth factor (PDGF), and the beta transforming growth factor (beta-TGF). In addition to these factors, cytokines such as interleukin-l (IL-1), the tumor necrosis factor (TNF), and interleukin-6 (IL-6) also play important roles in the process of wound healing. These factors act by different methods, in combination with other materials, to induce proliferation of dermal and epidermal elements such as fibroblasts. […] Actually, IL-1 affects the differentiation, growth, and activity of many cellular types in the organism. Within the immune system, IL-1 acts as a second signal that is necessary to activate the IL-2 circuit by the activated T lymphocytes. It also potentiates the action of other cytokines. It contributes to the differentiation of B lymphocytes and to their production of immunoglobulins. It modifies vascular permeability by the release of mediators by the endothelial cells and induces the appearance at their surface of a factor that has a procoagulating activity. Owing to its proliferative effect on the fibroblasts, it intervenes in the repair phase.
To show the effect of activating macrophages by sophorolipids, an Elisa sandwich test was carried out on the supernatant of a culture medium that contained macrophages. […] A negative test was also used.

[2] = Cytotoxicity on NCTC2544 at 24 hours (neutral red); assay type: cell-based; conditions: human, nctc2544 cells, read-out: Cellular Viability Rate; for viability at 24 h, 50000 µM: 5.10-2M; for viability at 24 h, 5000 µM: 5.10-3M; for viability at 24 h, 500 µM: 5.10-4M; for viability at 24 h, 10000 µM: 10^-2M; for viability at 24 h, 1000 µM: 10^-3M; for viability at 24 h, 100 µM: 10^-4M; for viability at 24 h, 10 µM: 10^-5M
Description: as §1

SMILES | viability at 1 µM (in vitro) | viability at 10 µM (in vitro) | viability at 100 µM (in vitro) | Concentrations IL-1 released by macrophages ([1]; 10^-4M) | Concentrations IL-1 released by macrophages ([1]; 10^-5M) | Concentrations IL-1 released by macrophages ([1]; 10^-6M) | viability at 24 h, 50000 µM [2] | viability at 24 h, 5000 µM [2] | viability at 24 h, 500 µM [2] | viability at 24 h, 10000 µM [2] | viability at 24 h, 1000 µM [2] | viability at 24 h, 100 µM [2] | viability at 24 h, 10 µM [2] | also measured
CC(CCCCCC/C=C\CCCCCCCC(=O)O)O[C@@H]1O[C@H](CO)[C@@H](O)[C@H](O)[C@H]1O[C@@H]1O[C@H](CO)[C@@H](O)[C@H](O)[C@H]1O (stereo partly shown) [Sophorolipid in Acid Form] | 99.6% | 99.8% | 98.7% | 795.6 pg/mL | 500.8 pg/mL | 287.2 pg/mL | 6.35% | 8.34% | 99.9% | 7.12% | 100% | 100% | 101% | activity at 100 µM (melanocytes; 168 h, at day 7): 56.2%; activity at 10 µM (melanocytes; 168 h, at day 7): 65.8%; activity at 1 µM (melanocytes; 168 h, at day 7): 93.6%; activity at 100 µM (melanocytes; 336 h, at day 14): 56.8%; activity at 10 µM (melanocytes; 336 h, at day 14): 86.4%; activity at 1 µM (melanocytes; 336 h, at day 14): 95.4%; effect on synthesis of melanine (melanocytes; unlike linolenic acid): reduction in the synthesis of melanine; times less toxic than the lactone form (fibroblasts; Tables 3A and 3B): 10 times; Cellular Viability Rate (fibroblasts; fibroblasts, 24 hours, 10^-6M, 1 µM): 99.65 % relative to TN; action on IL-1 release relative to that of lipopolysaccharides (fold) ([1]; 10^-4M): twice; action on IL-1 release compared with lipopolysaccharides ([1]; 10^-5M): equivalent to that of lipopolysaccharides
CC1CCCCCC/C=C\CCCCCCCC(=O)O[C@H]2[C@H](O)[C@@H](O)[C@H](O[C@H]3[C@H](O1)O[C@H](CO)[C@@H](O)[C@@H]3O)O[C@@H]2CO (stereo partly shown) [Sophorolipid in Lactone Form] | 98.8% | 101% | 99.1% | 255.4 pg/mL | 385.9 pg/mL | 345.1 pg/mL | 5.86% | 6.44% | 8.7% | 6.49% | 6.17% | 85.2% | 95.5% | 
